In patent publication US9447075B2, “Pyridazine derivatives as EAAT2 activators” (The Brigham and Women's Hospital, Inc., priority 2011, dated 2016):

Columns and labels:
EAAT2 [1] = assay: EAAT2 protein levels in PA-EAAT2 cells by Western blot; type: cell-based, human
Method: All of the derivates of 1 were initially evaluated in PA-EAAT2 cells^3 (a primary astrocyte line stably expressing EAAT2 mRNAs) following compound (10 μM) incubation for 4 and 24 h before harvesting and measuring EAAT2 levels by Western blot analysis. The fold increases in EAAT2 protein levels relative to DMSO controls are reported (Tables 1-4).
(§1) Characterization and efficacy studies of a compound, Compound 212320 (FIG. 6A) is shown. […] In the absence of serum, PA-EAAT2 cells express low amounts of EAAT2 protein, although the recombinant EAAT2 mRNA are expressed (translational silencing); however, EAAT2 protein levels are increased when an activator is added to the culture (translational activation). This cell line was used for high-throughput screening to identify EAAT2 translational activators. To prioritize candidate compounds, we initially evaluated activation of EAAT2 protein in PA-EAAT2 cells. Promising compounds were further evaluated in primary dissociated neuron and astrocyte mixed cultures and then in mice. FIG. 6 presents the characterization of Compound 212320 in PA-EAAT2 cells. Compound 212320 increased EAAT2 protein levels in a dose—(FIG. 6B) and time—(FIG. 6C) dependent manner. Importantly, the induction occurred in a short amount of time (within 1-2 hr) and was sustained even up to 72 hr (data not show). Additionally, induction occurred at low nanomolar concentrations. […] (FIG. 6D).

EAAT2 mRNA = assay: Quantitative real-time RT-PCR of EAAT2 mRNA in PA-EAAT2 cells; type: cell-based, human; details: PA-EAAT2 cells (FIG. 6F)
Method: as §1

EAAT2 [2] = assay: EAAT2 protein levels and glutamate uptake in primary dissociated neuron and astrocyte mixed cultures; type: cell-based; details: seven day-old mixed cultures, serum-free media, 48 hr
Method: We next evaluated Compound 212320 in primary dissociated neuron and astrocyte mixed cultures. Seven day-old cultures were treated with Compound 212320 in serum-free media for 48 hr. As shown in FIG. 7A-B, Compound 212320 increased EAAT2 protein levels and glutamate uptake function.

[3] = tested on: primary dissociated neuron and astrocyte mixed cultures; assay: Glutamate-induced excitotoxicity in primary neuron and astrocyte mixed cultures (LDH assay, MAP2 immunostaining); type: cell-based; details: for MAP2-positive neurons left compared to the control: 0.1 mM glutamate
[4] = tested on: male FVB mice, pilocarpine-induced SE; assay: Epilepsy model (pilocarpine-induced status epilepticus mouse model); type: in vivo
Method: Eight- to ten-week-old male FVB mice (22-32 g) received the 1st and 2nd injections of Compound 212320 (at 40 mg/kg in the formulation described above) at 20 and 3 hr prior to induction of seizure with pilocarpine (290 mg/kg, i.p., Sigma). To reduce peripheral cholinergic effects without interfering with the development of SE and chronic seizures, mice received (−) scopolamine methyl nitrate (1.5 mg/kg, Sigma, St. Louis, Mo.) 30 min prior to pilocarpine injection. Control animals were injected with scopolamine followed by saline, instead of pilocarpine. Mice were then observed for 2 hr to record acute seizure severity and latency period. The Racine scale (see Racine, R. J. Modification of seizure activity by electrical stimulation. II. Motor seizure. Electroencephalogr Clin Neurophysiol 32, 281-294 (1972)) was used to rate seizure severity as previously described in Kong, Q., et al. Increased glial glutamate transporter EAAT2 expression reduces epileptogenic processes following pilocarpine-induced status epilepticus. Neurobiol Dis (2012)).
Mice that reached SE and maintained tonic limbic extension for at least 60 min were kept and treated with compound daily for chronic seizure and pathological studies. The SE mice were fed with food soaked in a high sucrose (10%) saline solution to help recovery in the first 3 days after SE. Vehicle-treated SE mice and compound-treated SE littermates were carefully matched based on the body weight, seizure latency, seizure severity, and post-SE sickness.
Chronic seizure activities were recorded by webcam (Logitech, Fremont, Calif.) and reviewed using Windows Live Movie Maker. Daylight periods (9 AM-5 PM) were selected for observations because previous literature indicates a higher frequency of spontaneous recurrent seizures during the day (see Kong, Q., et al. Increased glial glutamate transporter EAAT2 expression reduces epileptogenic processes following pilocarpine-induced status epilepticus. Neurobiol Dis (2012); and Shapiro, L. A., Figueroa-Aragon, S. & Ribak, C. E. Newly generated granule cells show rapid neuroplastic changes in the adult rat dentate gyrus during the first five days following pilocarpine-induced seizures. Eur J Neurosci 26, 583-592 (2007)). At 8 weeks post-SE, brain tissue was harvested from SE mice for cresyl violet staining
Referring to FIG. 3, Compound 212320 reduced mortality rate, spontaneous recurrent seizure and neuronal death following pilocarpine-induced SE. Adult male FVB mice received Compound 212320 (i.p., 40 mg/kg), 3-hr later, were induced seizures with pilocarpine and were then observed for 2 hr to record acute seizure severity and latency period. The Racine scale was used to rate the seizure severity (described above). Mice that reached SE were treated with compound daily and at 4-week post-SE, were recorded chronic seizures for 2 weeks. A total of 15 independent experiments were performed, with a total of 153 vehicle-treated mice and 152 compound 7-4-treated mice. […] FIGS. 3(D-F) show spontaneous recurrent seizure. […] FIGS. 3(G-H) show hippocampal damage.

calcium channel L-type = assay: In vitro side effect profiling: calcium channel L-type; type: binding; details: 10 μM, duplicate
Method: (§2) To assess Compound 212320's biological activity and selectivity, we performed an in vitro side effect profiling study. Seventy-one targets were tested at 10 μM in duplicate. These targets include neurotransmitter related receptors (30), steroids (2), ion channels (6), second messenger (1), prostaglandins (3), growth factors/hormones (4), brain/gut peptides (13), enzymes (5) and cytochrome p450 (7). […] Additionally, we performed a protein kinase profiling study. Compound 212320 was tested at 1 and 10 μM against 288 kinases. […] These studies indicate that Compound 212320 has high specificity and low side-effects/toxicity potential.

EphA4 = EphA4 (Homo sapiens, UniProt P54764); assay: Protein kinase profiling: EphA4; type: biochemical; details: read-out: EphA4 inhibited
Chain of EphA4 (P54764 20-986, species assumed): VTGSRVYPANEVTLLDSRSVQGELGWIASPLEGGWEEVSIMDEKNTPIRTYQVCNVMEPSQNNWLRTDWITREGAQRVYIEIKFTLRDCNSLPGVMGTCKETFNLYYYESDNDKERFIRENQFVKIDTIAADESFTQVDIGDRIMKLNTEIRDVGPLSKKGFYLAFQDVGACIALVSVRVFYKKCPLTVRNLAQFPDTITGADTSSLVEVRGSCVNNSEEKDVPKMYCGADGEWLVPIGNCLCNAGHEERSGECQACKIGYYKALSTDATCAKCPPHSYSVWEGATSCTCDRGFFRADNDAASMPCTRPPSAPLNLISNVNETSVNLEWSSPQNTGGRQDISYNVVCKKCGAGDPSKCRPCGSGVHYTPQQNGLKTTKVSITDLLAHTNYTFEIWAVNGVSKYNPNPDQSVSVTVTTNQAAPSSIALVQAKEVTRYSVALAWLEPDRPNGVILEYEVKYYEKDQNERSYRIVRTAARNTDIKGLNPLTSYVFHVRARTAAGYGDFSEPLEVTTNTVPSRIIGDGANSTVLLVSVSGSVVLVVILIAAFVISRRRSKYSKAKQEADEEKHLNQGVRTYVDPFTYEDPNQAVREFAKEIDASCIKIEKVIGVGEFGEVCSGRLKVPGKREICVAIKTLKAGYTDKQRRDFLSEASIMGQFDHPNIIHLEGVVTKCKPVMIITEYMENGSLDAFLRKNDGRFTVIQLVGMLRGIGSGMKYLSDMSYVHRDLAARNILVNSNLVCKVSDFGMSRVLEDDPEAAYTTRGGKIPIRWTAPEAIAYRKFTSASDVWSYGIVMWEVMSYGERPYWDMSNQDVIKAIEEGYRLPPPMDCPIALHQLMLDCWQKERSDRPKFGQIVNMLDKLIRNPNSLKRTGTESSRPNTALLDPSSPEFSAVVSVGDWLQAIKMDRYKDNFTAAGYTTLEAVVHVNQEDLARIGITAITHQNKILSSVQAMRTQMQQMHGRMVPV
Method: as §2

SMILES: Cc1ccccc1CSc1ccc(-c2ccccn2)nn1 [Compound 7-4]
- Concentrations at which EAAT2 induction occurred (EAAT2 [1]; PA-EAAT2 cells): low nanomolar
- Time in which EAAT2 induction occurred (EAAT2 [1]; PA-EAAT2 cells): 1 to 2 h
- Time up to which EAAT2 induction was sustained (EAAT2 [1]; PA-EAAT2 cells, data not shown): up to 72 hr
- EAAT2 protein levels (EAAT2 [1]; PA-EAAT2 cells, dose- and time-dependent manner (FIG. 6B, 6C)): increased
- Fold increase for EAAT2, 4 h (EAAT2 [1]; compound 10 μM, 4 h incubation, PA-EAAT2 cells, relative to DMSO controls, na = not active): 1.7 ± 0.1 fold
- Fold increase for EAAT2, 24 h (EAAT2 [1]; compound 10 μM, 24 h incubation, PA-EAAT2 cells, relative to DMSO controls, na = not active): 3.5 ± 0.3 fold
- SAR comparison of activity on EAAT2 protein levels, in words (EAAT2 [1]; relative to parent/comparator analogue, Tables 1-4): increased potency
- EAAT2 mRNA levels (EAAT2 mRNA): not changed
- EAAT2 protein levels (EAAT2 [2]): increased
- Glutamate uptake function (EAAT2 [2]): increased
- Neuronal loss and degeneration (MAP2 immunostaining) ([3]; FIG. 7D): significantly prevented
- Toxicity in all assays ([3]; cell culture assays): did not cause any detectable toxicity
- Glutamate-induced cytotoxicity (LDH assay) ([3]; glutamate for 2 hr (FIG. 7C)): significantly reduced
- MAP2-positive neurons left compared to the control ([3]; pretreatment at 2 μM): 40.4±6.4%
- MAP2-positive neurons left compared to the control ([3]; pretreatment at 3 μM): 60.9±7.3%
- Protective effects after pretreatment with dihydrokainic acid (DHK), an EAAT2 blocker ([3]; with DHK pretreatment): partially abolished
- Hippocampal damage (hilar neuronal loss, cresyl violet) ([4]; 8 weeks post-SE): significantly attenuated
- Chronic seizure frequency (stage V spontaneous recurrent seizures) ([4]; daily treatment, recorded from 4-week post-SE for 2 weeks): significantly reduced
- Mortality rate vs vehicle ([4]; day 7 post-SE): significantly decreased
- Mortality rate vs vehicle ([4]; day 60 post-SE): significantly decreased
- Latency to indicated seizure stage vs vehicle ([4]; i.p., 40 mg/kg): not significantly different
- Acute seizure severity (percentage of mice reaching each seizure stage) vs vehicle ([4]; i.p., 40 mg/kg, within 2-hr after pilocarpine): not significantly different
- Mortality rate vs vehicle ([4]; on the day that SE was induced): no obvious difference
- inhibition on calcium channel L-type (calcium channel L-type): 43%
- inhibition at 10 µM (EphA4): 44%
